Test results published in PubChem BioAssay (NCI).
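The compound was tested at five concentrations on cells cultured in 96-well plates, with a 48-hour exposure period. The concentration for 50% growth inhibition is given as GI50. TGI marks complete inhibition of growth.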

Legend:
Test in all cases: NCI tumour cell line growth inhibition, 48 h
[1] = system: SNB-75 CNS
[2] = system: UACC-62 melanoma
[3] = system: NCI-H23 lung
[4] = system: RXF 393 renal
[5] = system: T-47D breast
[6] = system: A498 renal
[7] = system: TK-10 renal
[8] = system: OVCAR-5 ovarian
[9] = system: SK-MEL-5 melanoma
[10] = system: SK-OV-3 ovarian

SMILES	GI50 [1]	TGI [1]	GI50 [2]	TGI [2]	GI50 [3]	TGI [3]	GI50 [4]	TGI [4]	GI50 [5]	TGI [5]	GI50 [6]	TGI [6]	GI50 [7]	TGI [7]	GI50 [8]	TGI [8]	GI50 [9]	TGI [9]	TGI [10]	GI50 [10]
O=c1c2cccc(Cl)c2sc2c(NCCCNCCO)nc3ccccc3c12	7.69 µM	22 µM	1.65 µM	3.15 µM	3.62 µM	16.5 µM	1.69 µM	4 µM	2.2 µM	23 µM	5.64 µM	19.3 µM	3.07 µM	7.69 µM	2.8 µM	10.1 µM	6.5 µM	21 µM	–	–
CS(=O)(=O)NNS(=O)(=O)c1cccc([N+](=O)[O-])c1	–	> 100 µM	–	> 100 µM	–	> 100 µM	–	> 100 µM	–	–	–	> 100 µM	–	> 100 µM	–	–	–	> 100 µM	–	–
COC(=O)C1=C2CCC(=O)[C@@]2(C)C(OC(C)=O)C=CC1 (stereo partly drawn)	–	> 100 µM	–	> 100 µM	–	> 100 µM	–	> 100 µM	–	–	–	> 100 µM	–	> 100 µM	–	> 100 µM	–	> 100 µM	> 100 µM	–
Cc1cc(NS(=O)(=O)c2ccc(N=Nc3cc(N=Nc4ccc(S(=O)(=O)Nc5cc(C)nc(C)n5)cc4)c4c(NC(=O)C(Cl)Cl)cccc4c3OC(=O)C(Cl)Cl)cc2)nc(C)n1 (tested in a mixture with another compound)	–	76.9 µM	–	51.4 µM	–	78.3 µM	–	38.7 µM	–	–	–	71.1 µM	–	88.1 µM	–	30.6 µM	–	10.5 µM	> 100 µM	–
Cc1nc(Cl)nc(Cl)c1C	–	> 100 µM	–	–	–	> 100 µM	–	> 100 µM	–	–	–	–	–	> 100 µM	–	> 100 µM	–	> 100 µM	> 100 µM	–
CC1CC2(C)ON=C(c3ccccc3)N2c2ccccc2S1 (stereo not drawn)	41.8 µM	–	21 µM	84.3 µM	28.1 µM	97.5 µM	–	–	58.5 µM	–	34.7 µM	–	–	–	34.3 µM	–	16.9 µM	32.1 µM	91.9 µM	9.55 µM
COc1cc2nc3sc(C(=O)Nc4ccc(C(=O)OC(C)C)cc4)c(C(=O)Nc4ccc(Cl)cc4C)n3c(=O)c2cc1OC	10.2 µM	27.8 µM	6.8 µM	91.8 µM	13.6 µM	40.5 µM	–	–	5.59 µM	54.6 µM	4.69 µM	26.3 µM	2.45 µM	12.7 µM	17.4 µM	50.2 µM	6.08 µM	> 100 µM	70 µM	23.3 µM
C/C(=C\C(C)COCc1ccccc1)[C@H](COCc1ccccc1)OCc1ccccc1 (stereo partly drawn)	–	> 100 µM	–	> 100 µM	–	> 100 µM	–	> 100 µM	–	–	–	> 100 µM	–	> 100 µM	–	> 100 µM	–	> 100 µM	> 100 µM	–
COc1ccc2c(c1)c(-c1ccc(-c3cn(S(=O)(=O)c4ccccc4)c4ccc(OC)cc34)s1)cn2S(=O)(=O)c1ccccc1	> 100 µM	> 100 µM	> 100 µM	> 100 µM	> 100 µM	> 100 µM	–	–	> 100 µM	> 100 µM	> 100 µM	> 100 µM	> 100 µM	> 100 µM	> 100 µM	> 100 µM	> 100 µM	> 100 µM	> 100 µM	> 100 µM
Oc1ccc(-c2nnc3sc(-c4ccc(F)c(Oc5ccccc5)c4)nn23)cc1	26.4 µM	62.1 µM	19.8 µM	66.8 µM	29.3 µM	92.2 µM	7.47 µM	25.3 µM	16.4 µM	76.3 µM	–	–	29.6 µM	77 µM	> 100 µM	> 100 µM	18.6 µM	> 100 µM	> 100 µM	44.6 µM
O=S(=O)(O)O.[NH-]C1CCCCC1[NH-].[Pt+2] (stereo not drawn)	0.722 µM	61.5 µM	> 100 µM	> 100 µM	> 100 µM	> 100 µM	> 100 µM	> 100 µM	–	–	32.3 µM	> 100 µM	> 100 µM	> 100 µM	> 100 µM	> 100 µM	42.3 µM	> 100 µM	> 100 µM	> 100 µM
O=c1cccccc1NCCOCCNc1cccccc1=O	–	> 100 µM	–	> 100 µM	–	> 100 µM	–	–	–	–	–	> 100 µM	–	> 100 µM	–	> 100 µM	–	> 100 µM	> 100 µM	–
Cc1cc2c(cc1Cl)SC1=CC(=O)N(c3ccccc3)C1=NS2(=O)=O	–	–	33 µM	> 100 µM	> 100 µM	> 100 µM	> 100 µM	> 100 µM	13 µM	65.1 µM	–	–	21.6 µM	60.3 µM	> 100 µM	> 100 µM	–	10.8 µM	> 100 µM	> 100 µM
COc1ccc(C(=O)C(c2ccc(OC)cc2)C2(O)C(=O)Nc3ccccc32)cc1 (stereo not drawn)	–	> 100 µM	–	> 100 µM	–	> 100 µM	–	–	–	–	–	–	–	> 100 µM	–	–	–	–	> 100 µM	–
CCC[CH2][Sn]1([CH2]CCC)[O]C(=O)c2cc(I)cc(I)c2[O]1	1.04 µM	2.25 µM	1.01 µM	2.17 µM	1.18 µM	2.9 µM	0.559 µM	1.97 µM	–	–	1.37 µM	2.67 µM	1.25 µM	2.52 µM	1.99 µM	3.48 µM	1.54 µM	2.88 µM	4.65 µM	2.09 µM
Cc1ccc(NC(=O)CCC(CC(=O)C(C)(C)C)=NNC(=O)C(=O)NN)cc1C	–	> 100 µM	–	> 100 µM	–	> 100 µM	–	> 100 µM	–	–	–	–	–	> 100 µM	–	> 100 µM	–	> 100 µM	> 100 µM	–
O=C(O)C(CP(=O)(O)O)=C(Cl)Cl	–	> 100 µM	–	> 100 µM	–	> 100 µM	–	> 100 µM	–	–	–	–	–	> 100 µM	–	> 100 µM	–	–	> 100 µM	–
CC(=O)OC(/C=C1/C=CC(=O)O1)COC(=O)c1ccccc1 (stereo not drawn)	–	> 31.2 µM	–	> 31.2 µM	–	> 31.2 µM	–	> 31.2 µM	–	–	–	> 31.2 µM	–	> 31.2 µM	–	> 31.2 µM	–	> 31.2 µM	> 31.2 µM	–
